Data taken from patent US11959083B2, “Immunosuppression-reverting oligonucleotides inhibiting the expression of CD39” (Secarna Pharmaceuticals GmbH & Co. KG, priority 2016, dated 2024).
l = locked nucleic acid (LNA); d = 2'-deoxy (DNA)

Test system: mCD39 mRNA
Test: mCD39 mRNA knockdown efficacy screen in A20 cells (single dose, gymnotic delivery, QuantiGene Singleplex)
Format: cell-based, mouse
Conditions: 10 μM, three days, normalized to HPRT1
Description: FIG. 14-1 and 14-2 show mCD39 mRNA knockdown efficacy of mCD39 antisense oligonucleotides in the murine cancer cell line A20 (mouse B cell lymphoma). A20 cells were treated with a single dose of 10 μM of the respective antisense oligonucleotide. As negative control, cells were treated with neg1, an antisense oligonucleotide having the sequence CGTTTAGGCTATGTACTT (SEQ ID NO:99). Residual mCD39 mRNA expression relative to untreated cells is depicted. Expression values were normalized to expression of the housekeeping gene HPRT1.
In order to analyze the efficacy of mCD39 antisense oligonucleotides with regard to the knockdown of mCD39 mRNA expression in a cancer cell line, A20 (mouse B cell lymphoma, ATCC) cells were treated with a single dose (concentration: 10 μM without addition of any transfection reagent; this process is called gymnotic delivery) of the respective antisense oligonucleotide as indicated in FIG. 14. As control, cells were treated with neg1, an antisense oligonucleotide having the sequence CGTTTAGGCTATGTACTT (SEQ ID NO:99). mCD39 and HPRT1 mRNA expression was analyzed after three days using the QuantiGene Singleplex assay (Affymetrix) and mCD39 expression values were normalized to HPRT1 expression values.

Substance	Relative mCD39 mRNA expression (compared to non-treated cells)
+C*+C*+A*C*T*T*G*T*A*G*A*T*G*+T*+A*+C (antisense CCACTTGTAGATGTAC; sugars from the 5' end l3 d10 l3, all phosphorothioate, methylation of C not given here) [A04010MR]	0.25
+C*+C*+C*A*G*C*A*G*A*T*A*G*T*T*+A*+A*+T (antisense CCCAGCAGATAGTTAAT; sugars from the 5' end l3 d11 l3, all phosphorothioate, methylation of C not given here) [A04024MR]	0.35
+C*+C*+T*A*G*T*T*G*T*G*T*A*+T*+A*+C (antisense CCTAGTTGTGTATAC; sugars from the 5' end l3 d9 l3, all phosphorothioate, methylation of C not given here) [A04008MR]	0.58
+C*+C*+T*A*G*T*T*G*T*G*T*A*T*+A*+C*+T (antisense CCTAGTTGTGTATACT; sugars from the 5' end l3 d10 l3, all phosphorothioate, methylation of C not given here) [A04021MR]	0.35
+C*+G*+T*T*G*C*T*G*T*C*T*T*T*+G*+A*+T (antisense CGTTGCTGTCTTTGAT; sugars from the 5' end l3 d10 l3, all phosphorothioate, methylation of C not given here) [A04018MR]	0.18
+C*+G*+T*T*G*C*T*G*T*C*T*T*T*G*+A*+T*+C (antisense CGTTGCTGTCTTTGATC; sugars from the 5' end l3 d11 l3, all phosphorothioate, methylation of C not given here) [A04031MR]	0.14
+C*+T*+G*T*T*C*G*T*A*G*T*C*+T*+C*+C (antisense CTGTTCGTAGTCTCC; sugars from the 5' end l3 d9 l3, all phosphorothioate, methylation of C not given here) [A04004MR]	0.17
+G*+A*+C*C*T*T*T*C*A*C*T*T*G*G*C*A*+T (antisense GACCTTTCACTTGGCAT; sugars from the 5' end l3 d13 l1, all phosphorothioate, methylation of C not given here) [A04023MR]	0.03
+G*+A*+T*C*C*A*A*A*G*C*G*C*+C*+A*+A (antisense GATCCAAAGCGCCAA; sugars from the 5' end l3 d9 l3, all phosphorothioate, methylation of C not given here) [A04002MR]	0.06
+G*+C*+C*C*A*G*C*A*G*A*T*A*G*+T*+T*+A (antisense GCCCAGCAGATAGTTA; sugars from the 5' end l3 d10 l3, all phosphorothioate, methylation of C not given here) [A04012MR]	0.78
+G*+C*+C*C*A*G*C*A*G*A*T*A*G*T*+T*+A*+A (antisense GCCCAGCAGATAGTTAA; sugars from the 5' end l3 d11 l3, all phosphorothioate, methylation of C not given here) [A04025MR]	0.35
+G*+C*+T*A*T*A*C*T*G*C*C*T*C*+T*+T*+T (antisense GCTATACTGCCTCTTT; sugars from the 5' end l3 d10 l3, all phosphorothioate, methylation of C not given here) [A04019MR]	0.05
+G*+C*+T*A*T*A*C*T*G*C*C*T*C*T*+T*+T*+C (antisense GCTATACTGCCTCTTTC; sugars from the 5' end l3 d11 l3, all phosphorothioate, methylation of C not given here) [A04032MR]	0.02
+G*+G*+T*A*C*T*T*C*T*C*C*T*T*+T*+A*+C (antisense GGTACTTCTCCTTTAC; sugars from the 5' end l3 d10 l3, all phosphorothioate, methylation of C not given here) [A04016MR]	0.17
+G*+G*+T*G*G*C*A*C*T*G*T*T*+C*+G*+T (antisense GGTGGCACTGTTCGT; sugars from the 5' end l3 d9 l3, all phosphorothioate, methylation of C not given here) [A04005MR]	0.15
+G*+G*+T*G*G*C*A*C*T*G*T*T*C*G*+T*+A*+G (antisense GGTGGCACTGTTCGTAG; sugars from the 5' end l3 d11 l3, all phosphorothioate, methylation of C not given here) [A04030MR]	0.21
+G*+T*+A*C*A*G*G*T*T*G*G*T*G*+T*+G*+A (antisense GTACAGGTTGGTGTGA; sugars from the 5' end l3 d10 l3, all phosphorothioate, methylation of C not given here) [A04009MR]	0.89
+G*+T*+T*A*T*A*G*C*C*T*T*G*+C*+A*+G (antisense GTTATAGCCTTGCAG; sugars from the 5' end l3 d9 l3, all phosphorothioate, methylation of C not given here) [A04006MR]	0.06
+G*+T*+T*C*G*T*A*G*T*C*T*C*+C*+A*+G (antisense GTTCGTAGTCTCCAG; sugars from the 5' end l3 d9 l3, all phosphorothioate, methylation of C not given here) [A04003MR]	0.07
+T*+A*+C*A*T*T*T*C*T*T*A*C*T*C*+G*+T*+T (antisense TACATTTCTTACTCGTT; sugars from the 5' end l3 d11 l3, all phosphorothioate, methylation of C not given here) [A04033MR]	0.12
+T*+C*+G*T*A*G*T*C*T*C*C*A*G*T*+G*+C*+C (antisense TCGTAGTCTCCAGTGCC; sugars from the 5' end l3 d11 l3, all phosphorothioate, methylation of C not given here) [A04027MR]	0.03
+T*+G*+G*C*A*C*T*G*T*T*C*G*T*+A*+G*+T (antisense TGGCACTGTTCGTAGT; sugars from the 5' end l3 d10 l3, all phosphorothioate, methylation of C not given here) [A04015MR]	0.32
+T*+G*+T*T*C*G*T*A*G*T*C*T*C*C*+A*+G*+T (antisense TGTTCGTAGTCTCCAGT; sugars from the 5' end l3 d11 l3, all phosphorothioate, methylation of C not given here) [A04029MR]	0.11
+T*+T*+C*G*T*A*G*T*C*T*C*C*A*G*+T*+G*+C (antisense TTCGTAGTCTCCAGTGC; sugars from the 5' end l3 d11 l3, all phosphorothioate, methylation of C not given here) [A04028MR]	0.02
